Values quoted from earlier work in US5391753A, “Heteroaryl substituted phenylethenyl compounds having retinoid-like biological activity” (Allergan, Inc., priority 1993, dated 1995).

Test system: TPA induced ODC activity (ornithine decarboxylase)
Conditions: qualitative statement on retinoic acid, background

In the case of `CC1=C(/C=C/C(C)=C/C=C/C(C)=C/C(=O)O)C(C)(C)CCC1` [Retinoic acid], the “inhibition of induction of ODC activity by TPA” value is listed as “inhibits this induction of ODC activity by TPA”.
